This note sets out measurements from patent US6541486B1, “Bis-benzimidazole compounds and analogs thereof for inhibiting cell death” (Elan Pharma International Ltd., priority 1999, dated 2003).

Experiment [1] relates to OGD cells (retinal ganglion cells). The experiment is described as follows: Increase in survival of OGD cells at fixed concentrations (similar assay). Set-up: key: +: up to 50% increase; ++: 50%-100% increase; +++: >100% increase; —: negligible or no increase. The format is cell-based, rat.
Experiment [2] relates to Oxygen/Glucose Deprived RGCs (retinal ganglion cells). The experiment is described as follows: Protection of oxygen/glucose deprived (OGD) retinal ganglion cells, EC50. The conditions noted are these: overall judgement.
Procedure: Each compound was added to control cells and to cells deprived of oxygen and glucose for the time period from 30 minutes prior to OGD, during OGD, and for 24 and 48 hours after OGD.
RGCs from postnatal day 8 (P8) Sprague-Dawley rats were purified as previously described (Barres et al., 1988; Meyer-Franke et al., 1995). Purified retinal ganglion cells were plated onto tissue culture plastic precoated with poly-D-lysine and merosin, and cultured in serum-free Neurobasal medium (Gibco) containing various supplements.
Approximately 5,000 purified RGCs were cultured in 96-well plates (Falcon), precoated with poly-D-lysine (PDL, 70 kD, 10 mg/ml; Sigma) and merosin (2 mg/ml; Gibco). The RGCs were cultured in serum-free Neurobasal medium (Brewer et al., 1993; Gibco) containing Sato-Bottenstein and B27 (Gibco) supplement, insulin (Sigma, 5 mg/ml), brain-derived neurotrophic factor (BDNF, 25 ng/ml; Preprotech), ciliary neurotrophic factor (CNTF, 20 ng/ml; Preprotech) and forskolin (10 mM, Sigma). The percentage of surviving cells was assessed at 3, 7, and 14 days by the MTT assay.
Retinal ganglion cells were grown in 96-well plates for 5 days in serum-free medium as described above. On the sixth day cells were washed three times in a salt solution, e.g. Earle's balanced salt solution (EBSS, Gibco), containing glucose for control cells, and lacking glucose for test cells (oxygen/glucose-deprived cells). Control cells were further incubated in a 5% CO2 incubator while OGD cells were deprived of oxygen in an anaerobic chamber (for 3 hours). Test compounds were added to control cells and OGD cells for the time period from 30 minutes prior to OGD, during OGD, and for 24 and 48 hours after OGD.
After 3 hours OGD, control and test cells were transferred to growth medium with glucose and cultured an additional 48 hours in a 5% CO2 incubator, followed by a determination of cell viability using MTT, propidium iodide and annexin assays.
For the cell viability assay, MTT was added to culture and incubated at 37° C. for 1 hr. […] Viable and dead cells are counted by bright field microscopy at various times, e.g. 24, 48, or 72 hours after oxygen/glucose and/or growth factor deprivation. All values are reported as the mean (average) +/− the standard error of the mean (SEM) for at least three replicate cultures.

Regarding `c1ccc2[nH]c(Cc3nc4ccccc4[nH]3)nc2c1` [SNX 857], the “Percent Increase in Survival over OGD Control Cells” value (from here on “Percent Increase in Survival”) in experiment [1] (Concn 0.01 μM) is recorded as “+ (up to 50% increase)”; in experiment [1] (Concn 0.1 μM), “+++ (>100% increase)”; in experiment [1] (Concn 10 μM), “+++ (>100% increase)”; in experiment [1] (Concn .1 μM), “++ (50%-100% increase)”.
On to `O=[N+]([O-])c1ccc2[nH]c(Cc3nc4ccc([N+](=O)[O-])cc4[nH]3)nc2c1` [SNX 897, 5,5′-dinitro*], for which the “Percent Increase in Survival” value in experiment [1] (Concn 0.01 μM), in experiment [1] (Concn 0.1 μM) and in experiment [1] (Concn 1 μM) was “++ (50%-100% increase)” throughout.
On to `Nc1ccc2[nH]c(Cc3nc4ccc(N)cc4[nH]3)nc2c1` [SNX 898, 5,5′-diamino*], for which the “Percent Increase in Survival” value is “+ (up to 50% increase)” in experiment [1] (Concn 0.01 μM), “+ (up to 50% increase)” in experiment [1] (Concn 0.1 μM), “+ (up to 50% increase)” in experiment [1] (Concn 1 μM) and “—” in experiment [1] (Concn 10 μM).
For `Clc1ccc2[nH]c(Cc3nc4ccccc4[nH]3)nc2c1` [SNX 899, 5-chloro*], the “Percent Increase in Survival” value in experiment [1] (Concn 0.01 μM) was “+ (up to 50% increase)”; in experiment [1] (Concn 0.1 μM) it was “++ (50%-100% increase)”; in experiment [1] (Concn 1 μM) it was “++ (50%-100% increase)”; in experiment [1] (Concn 10 μM), “+ (up to 50% increase)”; in experiment [1] (Concn .1 μM), “++ (50%-100% increase)”.
Take `O=[N+]([O-])c1cccc2[nH]c(Cc3nc4ccccc4[nH]3)nc12` [SNX 900, 2-(1H-benzimidazol-2-ylmethyl)4-nitro-1H-benzimidazole]: the “Percent Increase in Survival” value in experiment [1] (Concn 0.01 μM) is on record as “++ (50%-100% increase)”; in experiment [1] (Concn 0.1 μM), “+++ (>100% increase)”; in experiment [1] (Concn 10 μM), “+ (up to 50% increase)”; in experiment [1] (Concn .1 μM), “++ (50%-100% increase)”. In experiment [2], the “Effectiveness in protecting OGD RGCs (in words, from Tables 5 and 6)” value (shortened to “Effectiveness in protecting OGD RGCs”) is given as “more effective overall than the unsubstituted compound”.
On to `O=[N+]([O-])c1cccc2[nH]c(Cc3nc4c([N+](=O)[O-])cccc4[nH]3)nc12` [SNX 901, 4,4′-dinitro*], for which the “Percent Increase in Survival” value is given as “++ (50%-100% increase)” in experiment [1] (Concn 0.01 μM), “++ (50%-100% increase)” in experiment [1] (Concn 0.1 μM), “+++ (>100% increase)” in experiment [1] (Concn 10 μM) and “+++ (>100% increase)” in experiment [1] (Concn .1 μM). Also, in experiment [2], the “Effectiveness in protecting OGD RGCs” value is listed as “more effective overall than the unsubstituted compound”.
Take `Nc1cccc2[nH]c(Cc3nc4c(N)cccc4[nH]3)nc12` [SNX 903, 4,4′-diamino*]: the “Percent Increase in Survival” value in experiment [1] (Concn 0.01 μM) is given as “+++ (>100% increase)”; in experiment [1] (Concn 0.1 μM), “+++ (>100% increase)”; in experiment [1] (Concn 10 μM), “++ (50%-100% increase)”; in experiment [1] (Concn .1 μM), “+++ (>100% increase)”. Besides, the “Effectiveness in protecting OGD RGCs” value in experiment [2] is given as “more effective overall than the unsubstituted compound”.
In the case of `Oc1cccc2[nH]c(Cc3nc4c(O)cccc4[nH]3)nc12` [SNX 909, 4,4′-dihydroxyl*], the “Percent Increase in Survival” value in experiment [1] (Concn 0.01 μM) is recorded as “+ (up to 50% increase)”; in experiment [1] (Concn 0.1 μM) it was “++ (50%-100% increase)”; in experiment [1] (Concn 10 μM), “+ (up to 50% increase)”; in experiment [1] (Concn .1 μM), “+++ (>100% increase)”. In addition, in experiment [2], the “Effectiveness in protecting OGD RGCs” value is recorded as “more effective overall than the unsubstituted compound”.
`Cn1c(Cc2nc3ccccc3n2C)nc2ccccc21` [SNX 910, 1,1′-dimethyl*]: the “Percent Increase in Survival” value was “++ (50%-100% increase)” in experiment [1] (Concn 0.01 μM), “++ (50%-100% increase)” in experiment [1] (Concn 0.1 μM), “+ (up to 50% increase)” in experiment [1] (Concn 10 μM) and “+++ (>100% increase)” in experiment [1] (Concn .1 μM).
In the case of `c1cnc2[nH]c(Cc3nc4cccnc4[nH]3)nc2c1` [SNX 911, 2,2′-methylenebis(4-azabenzimidazole)], the “Effectiveness in protecting OGD RGCs” value in experiment [2] is reported as “very effective”.
As to `Nc1cccc2[nH]c(Cc3nc4cc(Cl)ccc4[nH]3)nc12` [SNX 923, 2-[(5-Chloro-1H-benzimidazol-2-yl)methyl]-1H-benzimidazol-4-amine], the “Percent Increase in Survival” value in experiment [1] (Concn 0.001 μM), in experiment [1] (Concn 0.01 μM), in experiment [1] (Concn 0.1 μM), in experiment [1] (Concn 1 μM) and in experiment [1] (Concn 10 μM) was “+++ (>100% increase)” each time. For the same compound, the “Effectiveness in protecting OGD RGCs” value in experiment [2] is given as “more effective overall than the unsubstituted compound”.
With `CC(c1nc2ccccc2[nH]1)c1nc2ccccc2[nH]1` [SNX 925, 2,2′-ethylidenebisbenzimidazole], the “Percent Increase in Survival” value in experiment [1] (Concn 0.001 μM) was “++ (50%-100% increase)”; in experiment [1] (Concn 0.01 μM), “+++ (>100% increase)”; in experiment [1] (Concn 0.1 μM), “+++ (>100% increase)”; in experiment [1] (Concn 1 μM), “+++ (>100% increase)”; in experiment [1] (Concn 10 μM), “+++ (>100% increase)”. In experiment [2], the “Effectiveness in protecting OGD RGCs” value is given as “very effective”.
As for `Fc1cccc2[nH]c(Cc3nc4c(F)cccc4[nH]3)nc12` [SNX 930, 4,4′-difluoro*], the “Percent Increase in Survival” value in experiment [1] (Concn 0.001 μM) is “+ (up to 50% increase)”; in experiment [1] (Concn 0.01 μM) it was “+++ (>100% increase)”; in experiment [1] (Concn 0.1 μM) it was “+ (up to 50% increase)”; in experiment [1] (Concn 1 μM), “++ (50%-100% increase)”; in experiment [1] (Concn 10 μM), “++ (50%-100% increase)”. For the same compound, the “Effectiveness in protecting OGD RGCs” value in experiment [2] is “more effective overall than the unsubstituted compound”.
Regarding `N#Cc1ccc2[nH]c(Cc3nc4ccc(C#N)cc4[nH]3)nc2c1` [SNX 931, 5,5′-dicyano*], the “Percent Increase in Survival” value is given as “—” in experiment [1] (Concn 0.001 μM); “+ (up to 50% increase)” in experiment [1] (Concn 0.01 μM); “+ (up to 50% increase)” in experiment [1] (Concn 0.1 μM); “—” in experiment [1] (Concn 1 μM); “++ (50%-100% increase)” in experiment [1] (Concn 10 μM).
In the case of `Cc1nc(-c2nc(C)c(C)[nH]2)[nH]c1C` [SNX 939, 2,2′-bis(4,5-dimethylimidazole)], the “Effectiveness in protecting OGD RGCs” value in experiment [2] is reported as “very effective”.
On the same count and under the same terms, the same measure for `NC(c1ncc[nH]1)c1ncc[nH]1` [SNX 949, 2,2′-(aminomethylene)bisimidazole]: “very effective”.
Consider `O=C(c1ncc[nH]1)c1ncc[nH]1` [SNX 951, di(imidazol-2-yl)methanone], for which, in experiment [2], the “Effectiveness in protecting OGD RGCs” value is “very effective”.
As to `c1ccc2[nH]c(CC3=NCCN3)nc2c1` [SNX 978, 2-(4,5-dihydroimidazol-2-yl)methyl benzimidazole], the “Effectiveness in protecting OGD RGCs” value in experiment [2] is listed as “very effective”.
Still for that read-out and setting: the entry for `c1ccc(CN2CCN=C2Cc2nc3ccccc3[nH]2)cc1` [SNX 979, 2-(1-benzyl-4,5-dihydroimidazol-2-yl)methyl benzimidazole] is “very effective”; for `CN1CC[N+](C)=C1Cc1nc2ccccc2[nH]1` [SNX 980, 2-(1,3-Dimethyl-4,5-dihydro-1H-imidazol-2-ylmethyl)-1H-benzimidazole] it is “very effective”.
Same read-out and setting: the entry for `CN1CCN=C1Cc1nc2ccccc2[nH]1` [SNX 1019, 2-(1-methyl-4,5-dihydroimidazol-2-yl)methyl benzimidazole] is “very effective”; for `CC1(C)CN=C(Cc2nc3ccccc3[nH]2)N1` [SNX 1020, 2-(5,5-Dimethyl-4,5-dihydro-1H-imidazol-2-ylmethyl)-1H-benzimidazole] it is “very effective”.
Same read-out and setting: the same measure for `CN1CCN=C1CCc1nc2ccccc2n1C` [SNX 1771]: “very effective”; for `c1ccc2[nH]c(CC3=NCCCN3)nc2c1` [SNX 1818, 2-(3,4,5,6-tetrahydropyrimidin-2-yl)methyl benzimidazole]: “very effective”; for `c1ccc2[nH]c(CC3=NCCCCN3)nc2c1` [SNX 1819, 2-(4,5,6,7-tetrahydro-1,3-diazepin-2-yl)methyl benzimidazole]: “very effective”.
